Results on seven compounds are retold here after publication PMC4057101 (Science (New York, N.Y.), 2013).

Format in all cases: biochemical
One assay addresses T1, NphT7 (Streptomyces sp. CL190, UniProt D7URV0).
T1 sequence (D7URV0 1-329): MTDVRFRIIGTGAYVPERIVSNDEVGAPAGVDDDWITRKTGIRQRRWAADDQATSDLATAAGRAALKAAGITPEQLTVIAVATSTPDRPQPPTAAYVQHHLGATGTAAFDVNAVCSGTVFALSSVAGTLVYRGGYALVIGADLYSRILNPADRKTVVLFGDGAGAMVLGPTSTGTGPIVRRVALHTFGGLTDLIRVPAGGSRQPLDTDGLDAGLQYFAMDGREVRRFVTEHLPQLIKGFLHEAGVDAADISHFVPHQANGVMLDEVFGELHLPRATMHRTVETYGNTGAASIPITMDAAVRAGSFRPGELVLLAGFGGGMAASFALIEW
Kind of assay: steady-state kinetics, coupled assay with PhaB. The conditions noted are these: acetyl-CoA starter.

Another assay deals with DEBSMod6+TE (Saccharopolyspora erythraea, UniProt Q03133). Kind of assay: LC-MS of triketide lactone formation. The note with it: NDK-SNAC, MatB and ATP regeneration.
In a further assay the target is acetate kinase (AckA) (Escherichia coli, UniProt P0A6A3). The note with it: ATP.
The target in assay [1] is acetyl-CoA carboxylase (ACCase), AccABCD (Escherichia coli, UniProt P0A9Q5+P0ABD5). Kind of assay: one-pot carboxylation. The note with it: formed in situ from fluoroacetate by AckA-Pta; 500 μM CoA.
The next assay deals with PhaB (Cupriavidus necator, UniProt P14697). Kind of assay: coupled reduction with NphT7. The note with it: substrate formed in situ by NphT7.
Sequence of PhaB (P14697 whole entry): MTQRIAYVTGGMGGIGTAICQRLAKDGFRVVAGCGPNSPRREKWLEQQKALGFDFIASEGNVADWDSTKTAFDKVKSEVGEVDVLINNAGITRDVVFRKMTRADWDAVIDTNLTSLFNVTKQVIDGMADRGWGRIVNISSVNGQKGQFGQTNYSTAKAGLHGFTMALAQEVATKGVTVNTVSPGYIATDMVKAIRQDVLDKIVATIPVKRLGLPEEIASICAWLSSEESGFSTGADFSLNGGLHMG

Sequence of acetate kinase (AckA) (P0A6A3 whole entry): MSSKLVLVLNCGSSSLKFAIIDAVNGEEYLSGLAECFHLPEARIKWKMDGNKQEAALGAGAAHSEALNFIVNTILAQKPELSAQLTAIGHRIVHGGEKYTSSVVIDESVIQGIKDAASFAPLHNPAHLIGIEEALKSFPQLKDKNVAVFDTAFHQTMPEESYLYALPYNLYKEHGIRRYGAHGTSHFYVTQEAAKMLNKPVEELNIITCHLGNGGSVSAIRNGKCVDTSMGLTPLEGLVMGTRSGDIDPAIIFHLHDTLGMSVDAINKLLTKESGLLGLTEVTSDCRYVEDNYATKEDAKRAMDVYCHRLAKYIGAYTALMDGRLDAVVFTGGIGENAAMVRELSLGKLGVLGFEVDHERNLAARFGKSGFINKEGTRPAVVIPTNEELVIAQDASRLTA
Sequence of DEBSMod6+TE (Q03133 1468-3172): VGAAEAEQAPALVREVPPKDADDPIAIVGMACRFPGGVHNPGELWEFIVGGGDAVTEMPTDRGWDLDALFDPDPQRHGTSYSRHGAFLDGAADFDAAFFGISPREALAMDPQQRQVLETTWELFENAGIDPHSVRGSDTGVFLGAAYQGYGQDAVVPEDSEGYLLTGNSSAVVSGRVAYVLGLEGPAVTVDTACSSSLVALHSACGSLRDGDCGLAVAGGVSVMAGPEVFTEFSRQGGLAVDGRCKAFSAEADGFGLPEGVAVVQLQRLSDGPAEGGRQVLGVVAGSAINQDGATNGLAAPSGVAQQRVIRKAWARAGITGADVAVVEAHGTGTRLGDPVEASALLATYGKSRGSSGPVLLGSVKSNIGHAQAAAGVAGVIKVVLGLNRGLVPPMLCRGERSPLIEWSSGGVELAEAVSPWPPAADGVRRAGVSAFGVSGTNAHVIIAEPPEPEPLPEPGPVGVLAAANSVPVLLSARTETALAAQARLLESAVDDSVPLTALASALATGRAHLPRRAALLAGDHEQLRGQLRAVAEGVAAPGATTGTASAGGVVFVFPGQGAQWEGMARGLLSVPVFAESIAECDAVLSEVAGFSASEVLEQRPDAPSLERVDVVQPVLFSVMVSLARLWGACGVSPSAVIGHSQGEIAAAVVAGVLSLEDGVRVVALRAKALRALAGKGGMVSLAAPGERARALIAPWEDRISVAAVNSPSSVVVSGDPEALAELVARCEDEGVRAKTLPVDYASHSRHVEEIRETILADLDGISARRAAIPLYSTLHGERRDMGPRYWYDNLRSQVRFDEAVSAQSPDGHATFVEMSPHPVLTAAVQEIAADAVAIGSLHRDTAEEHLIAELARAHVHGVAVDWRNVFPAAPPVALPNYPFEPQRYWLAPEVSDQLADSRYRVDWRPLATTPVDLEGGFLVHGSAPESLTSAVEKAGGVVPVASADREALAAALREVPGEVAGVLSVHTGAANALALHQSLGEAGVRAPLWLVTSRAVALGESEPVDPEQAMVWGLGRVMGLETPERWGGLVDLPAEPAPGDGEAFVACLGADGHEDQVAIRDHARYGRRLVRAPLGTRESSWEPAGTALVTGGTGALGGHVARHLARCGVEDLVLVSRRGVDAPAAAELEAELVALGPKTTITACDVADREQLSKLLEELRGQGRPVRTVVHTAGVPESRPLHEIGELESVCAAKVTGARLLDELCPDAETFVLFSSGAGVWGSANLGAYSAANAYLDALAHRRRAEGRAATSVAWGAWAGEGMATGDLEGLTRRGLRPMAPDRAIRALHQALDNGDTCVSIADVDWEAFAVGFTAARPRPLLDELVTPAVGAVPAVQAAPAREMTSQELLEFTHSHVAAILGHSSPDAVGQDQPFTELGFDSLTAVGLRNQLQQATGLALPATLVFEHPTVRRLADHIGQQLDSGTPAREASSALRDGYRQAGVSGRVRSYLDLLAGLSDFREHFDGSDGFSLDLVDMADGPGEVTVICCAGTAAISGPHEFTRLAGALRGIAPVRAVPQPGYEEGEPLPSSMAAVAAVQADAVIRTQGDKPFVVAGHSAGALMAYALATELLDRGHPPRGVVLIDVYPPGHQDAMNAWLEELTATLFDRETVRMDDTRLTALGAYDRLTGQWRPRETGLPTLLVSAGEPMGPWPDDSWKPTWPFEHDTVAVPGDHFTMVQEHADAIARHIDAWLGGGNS
Sequence of acetyl-CoA carboxylase (ACCase), AccABCD (P0A9Q5 whole entry): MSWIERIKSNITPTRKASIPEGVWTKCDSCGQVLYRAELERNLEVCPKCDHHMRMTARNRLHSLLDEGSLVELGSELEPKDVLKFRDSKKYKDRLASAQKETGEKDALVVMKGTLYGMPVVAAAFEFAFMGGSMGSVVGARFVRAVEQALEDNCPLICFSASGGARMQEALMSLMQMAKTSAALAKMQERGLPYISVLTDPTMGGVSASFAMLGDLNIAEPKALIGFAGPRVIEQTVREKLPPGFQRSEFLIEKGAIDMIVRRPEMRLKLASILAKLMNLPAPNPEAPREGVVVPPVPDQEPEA
Sequence of acetyl-CoA carboxylase (ACCase), AccABCD (P0ABD5 2-319): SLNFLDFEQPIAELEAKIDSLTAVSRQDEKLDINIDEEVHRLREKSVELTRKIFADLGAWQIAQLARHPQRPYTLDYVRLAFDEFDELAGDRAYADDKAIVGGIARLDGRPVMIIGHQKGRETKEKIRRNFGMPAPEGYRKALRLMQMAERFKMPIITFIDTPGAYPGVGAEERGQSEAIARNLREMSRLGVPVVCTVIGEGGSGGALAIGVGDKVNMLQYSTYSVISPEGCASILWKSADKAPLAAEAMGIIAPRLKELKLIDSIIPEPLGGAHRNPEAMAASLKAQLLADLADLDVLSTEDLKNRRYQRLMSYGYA

With `CC(C)(COP(=O)(O)OP(=O)(O)OC[C@H]1O[C@@H](n2cnc3c(N)ncnc32)[C@H](O)[C@@H]1OP(=O)(O)O)[C@@H](O)C(=O)NCCC(=O)NCCSC(=O)C(F)C(=O)O` (some centres unmarked) [fluoromalonyl-CoA], at NphT7, the KM entry is “formation of acetofluoroacetyl-CoA using an acetyl-CoA starter and fluoromalonyl-CoA extender”. In addition, on DEBSMod6+TE, the “LC-MS of triketide lactone formation” value was “DEBSMod6+TE is also able to accept the fluorinated monomer in chain extension catalysis”.

Regarding `O=C(O)CF` [fluoroacetate], the KM entry on acetate kinase (AckA) is reported as “Analysis of the kinetic parameters for these enzymes with respect to fluorinated substrates”. As for `CC(C)(COP(=O)(O)OP(=O)(O)OC[C@H]1O[C@@H](n2cnc3c(N)ncnc32)[C@H](O)[C@@H]1OP(=O)(O)O)[C@@H](O)C(=O)NCCC(=O)NCCSC(=O)CC(=O)O` [malonyl-CoA], the KM entry at NphT7 is “Steady-state kinetic parameters for NphT7-catalyzed C–C bond formation”. Consider `CC(=O)O` [acetate], for which the KM entry at acetate kinase (AckA) is “rapidly produce both acetyl- and fluoroacetyl-CoA in nearly quantitative yield”. Consider `CC(C(=O)O)C(=O)SCCNC(=O)CCNC(=O)[C@H](O)C(C)(C)COP(=O)(O)OP(=O)(O)OC[C@H]1O[C@@H](n2cnc3c(N)ncnc32)[C@H](O)[C@@H]1OP(=O)(O)O` (some centres unmarked) [methylmalonyl-CoA], for which the “LC-MS of triketide lactone formation” value on DEBSMod6+TE is on record as “single round of chain elongation with its native methylmalonyl-CoA extender unit”. Regarding `CC(C)(COP(=O)(O)OP(=O)(O)OC[C@H]1O[C@@H](n2cnc3c(N)ncnc32)[C@H](O)[C@@H]1OP(=O)(O)O)[C@@H](O)C(=O)NCCC(=O)NCCSC(=O)CF` [fluoroacetyl-CoA], in assay [1], the one-pot carboxylation entry is reported as “carry out the carboxylation of fluoroacetate in a one-pot reaction to generate the fluoromalonyl-CoA”. As for `CC(=O)C(F)C(=O)SCCNC(=O)CCNC(=O)[C@H](O)C(C)(C)COP(=O)(O)OP(=O)(O)OC[C@H]1O[C@@H](n2cnc3c(N)ncnc32)[C@H](O)[C@@H]1OP(=O)(O)O` (some centres unmarked) [acetofluoroacetyl-CoA], the “coupled reduction with NphT7; 1H and 19F NMR of product” value on PhaB is reported as “PhaB is capable of efficiently reducing the acetofluoroacetyl-CoA substrate”.
